Structures can show the parent of a compound that is named as a salt. Where two headings read alike, the source gives them in different places. One block for each compound: values may come before it.
Key:
[1] = Dynamic vapor sorption (DVS) / moisture sorption analysis; assay type: physicochemical; details: for hygroscopicity / moisture uptake at 60% RH / moisture uptake at 90% RH: DVS; for moisture uptake at 60% RH / moisture uptake at 90% RH: about 25° C.
Method: Compounds and polymorphs provided herein can be characterized by moisture sorption analysis. This analysis was performed using a Hiden IGAsorp Moisture Sorption instrument. Moisture sorption experiments were carried out at about 25° C. by performing an adsorption scan from about 40% to about 90% RH in steps of about 10% RH and a desorption scan from about […] to about 0% RH in steps of about −10% RH. A second adsorption scan from about 10% to about 40% RH was performed to determine the moisture uptake from a drying state to the starting humidity. Samples were allowed to equilibrate for about four hours at each point or until an asymptotic weight was reached. After the isothermal sorption scan, samples were dried for about one hour at elevated temperature (about 60° C.) to obtain the dry weight. XRPD analysis on the material following moisture sorption was performed to determine the solid form.
Dynamic vapor sorption (DVS) analysis was performed on polymorph Forms A, B, C, D, and E using the DVS instrument and parameters as described above. […] Hysteresis indicative of hemi-hydrate formation was observed.

[2] = Salt screen: solubility in water; assay type: physicochemical
Source text: Salts of a compound of Formula (I) were formed with L-tartaric acid, p-toluenesulfonic acid, D-glucaronic acid, ethane-1,2-disulfonic acid (EDSA), 2-naphthalenesulfonic acid (NSA), hydrochloric acid (HCl) (mono and bis), hydrobromic acid (HBr), citric acid, naphthalene-1,5-disulfonic acid (NDSA), DL-mandelic acid, fumaric acid, sulfuric acid, maleic acid, methanesulfonic acid (MSA), benzenesulfonic acid (BSA), ethanesulfonic acid (ESA), L-malic acid, phosphoric acid, and aminoethanesulfonic acid (taurine).

[3] = Hold in humidity chambers at 9% RH and 95% RH; assay type: physicochemical; details: after 1 week
[4] = Grinding stability (mortar and pestle); assay type: physicochemical; details: for Form by XRPD after grinding: after both 2 and 5 minutes of grinding by hand; for Grinding (mortar & pestle): by hand, 2 and 5 min, XRPD
Method: Forms A, C, D, and E were subjected to grinding experiments performed using a mortar and pestle by hand. Samples were lightly grounded for 2 minutes then analyzed by XRPD. Material was then returned to the mortar and pestle and grounded for an additional 3 minutes, for a total of 5 minutes of grinding, and re-analyzed by XRPD.

[5] = Drying of Form A at 70° C.; assay type: physicochemical; details: Drying at 70° C. for six days
Method: 1. Procedure from CH2Cl2 and from IPA: Form C (1 g) was slurried in five volumes of dichloromethane. After holding for 15 hours, filtration, and drying, Form A was isolated in 82% yield. Scale-up was performed on a 20 g scale with a water-wet cake of Form C to yield Form A in 92% yield. […] Slurrying dry Form C in isopropyl alcohol using a similar method also yielded Form A.

[6] = Stability studies of packaged polymorph Forms (temperature and humidity storage); assay type: physicochemical; details: HPLC, Karl Fischer, XRPD
Source text: Polymorphs Form A and Form C were subjected to stability studies where several samples of each given Form were packaged and subjected to the given temperature and humidity conditions as described in Table 10. At each timepoint, a sample for that study was opened and evaluated by HPLC for purity, Karl Fischer for moisture content, and XRPD for confirming the polymorph Form.

[7] = Thermal stability (60° C.); details: for Thermal stability (60° C.): after 1 week; for polymorph Form changes by XRPD: held at 60° C. for 10 days
Method: Forms A, B, C, D, and E were held at 60° C. for 10 days followed by analysis by XRPD. In each case, 8 mL vials were charged with approximately 20 mg of material, with the exception of Form B for which 10 mg of material was charged. Samples equilibrated in an oven for 10 days.

[8] = Solubility of polymorph Forms (H2O, SGF); assay type: physicochemical
[9] = Pharmacokinetics, repeat oral dose; assay type: in vivo; details: both sexes, human, plasma; Day 14; repeat oral dosing 1, 2, 5, 10 mg (QD Days 1 and 14, BID Days 2 through 13); range over doses
Method: Repeat oral dose administration of a compound of Formula (I) Form C polymorph was administered once per day (QD) in the morning on Days 1 and 14 and twice daily (BID) on Days 2 through 13. Administration of the compound occurred after an overnight fast on Days 1 and 14. Blood samples were collected for plasma analysis on Day 14 following 1, 2, 5 and 10 mg repeat dosing. Blood samples were collected on Day 14 prior to dosing and at 0.5, 1, 1.5, 2, 3, 4, 6, 9, 12, 16 and 24 hours after administration to determine plasma concentrations of the compound of Formula (I) Form C polymorph. Doses of 1 mg, 2 mg, 5 mg, and 10 mg gave a Cmax value range of greater than 10 ng/mL to less than 1,000 ng/mL in a dose dependent manner. In addition doses of 1 mg, 2 mg, 5 mg, and 10 mg gave an AUCtau,ss value range of greater than 100 ng*h/mL to less than 2,500 ng*h/mL, in a dose dependent manner. For the BID regimens, the AUC over a 24 hour interval was obtained by multiplying AUCtau,ss by 2.

[10] = Pharmacokinetics, single oral dose; assay type: in vivo; details: both sexes, human, plasma, healthy adult subjects, fasting, range over doses
Method: A randomized, double-blind, placebo-controlled, single and repeat dose study was conducted to evaluate the pharmacokinetics (PK) of a compound of Formula (I) Form C polymorph when orally administered to healthy adult male and female subjects. Subjects received a single oral dose of a compound of Formula (I) Form C polymorph under fasting conditions at a dose of 1 mg, 2 mg, 5 mg, 10 mg, 20 mg, and 30 mg. Blood samples were collected for plasma analysis pre-dose, and at 0.5, 1, 1.5, 2, 3, 4, 6, 9, 12, 16, and 24 hours.

[11] = Stability of the capsules in a container closure; assay type: physicochemical
Method: The stability of the capsules in a container closure was evaluated at long-term and accelerated conditions. Container closure conditions used were (i) 60-cc high density polyethylene (HDPE), wide mouth, round, white bottle; and (ii) child resistant 33-mm white plastic cap with a heat induction foil inner seal liner. The containers containing the capsules were subjected to the following conditions: (1) −20° C.±5° C.; (2) 5° C.±3° C.; (3) 25° C.±2° C., 60% RH±5% RH; (4) 40° C.±2° C., 75% RH±5% RH; (5) 25° C.±2° C., 60% RH±5% RH, open bottle; (6) 40° C.±2° C., 75% RH±5% RH, open bottle; and (7) 30° C.±2° C., 65% RH±5% RH. Samples of the capsule formulations were analyzed at certain time intervals. The API remained stable at 25° C.±2° C., 60% RH±5% RH and 40° C. 2° C., […]±5% RH for at least 6 months. The API remained stable for at least 6 month at −20° C. 5° C., 5° C. 3° C. when stored in induction-sealed HDPE bottles. The API was stable for at least 6 months at 25° C.±2° C., 60% RH±5% RH and 40° C.±2° C., 75% RH±5% RH in open HDPE bottles.

[12] = PBS at pH 7.4, 37° C., 24 hours, 5 μM; cited from earlier work
[13] = human plasma, 37° C., 5 μM; cited from earlier work

Compound: C[C@H](Nc1ncnc2[nH]cnc12)c1cc2cccc(Cl)c2c(=O)n1-c1ccccc1 [Bis HCL]
Moisture Sorption (wt % water) ([1]; 60% RH): 60% RH: 9.9 wt % water | Moisture Sorption (wt % water) ([1]; 90% RH): 90% RH: 12.3 wt % water | Solubility in water [2]: 11800 µg/mL

Compound: C[C@H](Nc1ncnc2[nH]cnc12)c1cc2cccc(Cl)c2c(=O)n1-c1ccccc1 [EDSA]
Moisture Sorption (wt % water) ([1]; 60% RH): 60% RH: 7.5 wt % water | Moisture Sorption (wt % water) ([1]; 90% RH): 90% RH: 28.1 wt % water | Solubility in water [2]: 9400 µg/mL

Compound: O=C(O)CCCc1ccc(N(CCCl)CCCl)cc1 [chlorambucil]
chemical stability [12]: largely hydrolyzed

Compound: CC(C)[N+](C)(CCOC(=O)C1c2ccccc2Oc2ccccc21)C(C)C [propantheline]
plasma stability [13]: intermediate plasma stability

Compound: CCCOc1cc(N)ccc1C(=O)OCCN(CC)CC [propoxycaine]
plasma stability [13]: low plasma stability

Now from value to compound, other results behind:

changes in Form [3]: no changes in Form | Moisture Sorption (wt % water) ([1]; 60% RH, listed as Free Form A): 60% RH: 0.7 wt % water | Moisture Sorption (wt % water) ([1]; 90% RH, listed as Free Form A): 90% RH: 2.6 wt % water | DVS ([1]; @ 60% RH): 0.7% @ 60% RH | DVS ([1]; @ 90% RH): 2.6% @ 90% RH | hygroscopicity [1]: slightly hygroscopic | moisture uptake at 60% RH ([1]; 60% RH): 0.7 wt % | moisture uptake at 90% RH ([1]; 90% RH): 2.6 wt % | Form by XRPD after grinding [4]: remain consistent | Grinding (mortar & pestle) [4]: remained Form | Solubility in water ([2]; listed as Free Form A): 30 µg/mL | Thermal stability (60° C.) [7]: stable after 1 | polymorph Form changes by XRPD [7]: No polymorph Form changes were observed | Solubility (mg/mL) ([8]; H2O): 0.030 (H2O) mg/mL | Solubility (mg/mL) ([8]; SGF): 21.800 (SGF) mg/mL
Compound: C[C@H](Nc1ncnc2[nH]cnc12)c1cc2cccc(Cl)c2c(=O)n1-c1ccccc1 [Form A, (S)-3-(1-(9H-purin-6-ylamino)ethyl)-8-chloro-2-phenylisoquinolin-1(2H)-one]
degradation in chemical or chiral purity [5]: no degradation in chemical or chiral purity | instability of the polymorphic Form ([6]; Double LDPE bags in fiberboard drum, 40° C. ± 2° C./75% RH ± 5% RH, 1, 2, 3, 6, and 12 months): no indication of instability of the polymorphic Form

DVS ([1]; @ 60% RH): 1.0% @ 60% RH | DVS ([1]; @ 90% RH): 1.7% @ 90% RH | hygroscopicity [1]: slightly hygroscopic | moisture uptake at 60% RH ([1]; 60% RH): 1.0 wt % | moisture uptake at 90% RH ([1]; 90% RH): 1.7 wt % | Thermal stability (60° C.) [7]: stable after 1 | polymorph Form changes by XRPD [7]: No polymorph Form changes were observed
Compound: C[C@H](Nc1ncnc2[nH]cnc12)c1cc2cccc(Cl)c2c(=O)n1-c1ccccc1 [Form B, (S)-3-(1-(9H-purin-6-ylamino)ethyl)-8-chloro-2-phenylisoquinolin-1(2H)-one]

changes in Form [3]: no changes in Form | DVS ([1]; @ 60% RH): 4.2% @ 60% RH | DVS ([1]; @ 90% RH): 4.9% @ 90% RH | hygroscopicity [1]: moderately hygroscopic | moisture uptake at 60% RH ([1]; 60% RH): 4.2% | moisture uptake at 90% RH ([1]; 90% RH): 4.9% | AUC [9]: 100 to 2500 ng·h/mL | Cmax at 14 days [9]: 10 to 1000 ng/mL | Form by XRPD after grinding [4]: remain consistent | Grinding (mortar & pestle) [4]: remained Form | Cmax ([10]; single oral dose 1, 2, 5, 10, 20, 30 mg): 10 to 1500 ng/mL | half-life ([10]; single oral dose 1 to 30 mg): 3 to 10 h | AUC(0-t) ([10]; single oral dose 1 to 30 mg, read-out: AUC0-24): 100 to 4000 ng·h/mL | time the API remained stable ([11]; capsules in HDPE bottle, 25° C.±2° C., 60% RH±5% RH and 40° C. 2° C., 45% RH±5% RH): at least 6 months | time the API was stable ([11]; capsules, 25° C.±2° C., 60% RH±5% RH and 40° C.±2° C., 75% RH±5% RH, open HDPE bottles): at least 6 months | time the API remained stable ([11]; capsules, −20° C. 5° C., 5° C. 3° C., induction-sealed HDPE bottles): at least 6 month | Thermal stability (60° C.) [7]: stable after 1 | polymorph Form changes by XRPD [7]: No polymorph Form changes were observed | Solubility (mg/mL) ([8]; H2O): 0.001 (H2O) mg/mL | Solubility (mg/mL) ([8]; SGF): 9.133 (SGF) mg/mL
Compound: C[C@H](Nc1ncnc2[nH]cnc12)c1cc2cccc(Cl)c2c(=O)n1-c1ccccc1 [Form C, (S)-3-(1-(9H-purin-6-ylamino)ethyl)-8-chloro-2-phenylisoquinolin-1(2H)-one]
instability of the polymorphic Form ([6]; LDPE bags, foil or Mylar bag, HDPE drum, 5° C./60% RH, 25° C./60% RH, 40° C./75% RH, up to 9 months): no indication of instability of the polymorphic Form

DVS ([1]; @ 60% RH): 0.4% @ 60% RH | DVS ([1]; @ 90% RH): 1.7% @ 90% RH | hygroscopicity [1]: slightly hygroscopic | moisture uptake at 60% RH ([1]; 60% RH): 0.4 wt % | moisture uptake at 90% RH ([1]; 90% RH): 1.7 wt % | Grinding (mortar & pestle) [4]: amorphous | Thermal stability (60° C.) [7]: stable after 1 | polymorph Form changes by XRPD [7]: No polymorph Form changes were observed
Compound: C[C@H](Nc1ncnc2[nH]cnc12)c1cc2cccc(Cl)c2c(=O)n1-c1ccccc1 [Form D, (S)-3-(1-(9H-purin-6-ylamino)ethyl)-8-chloro-2-phenylisoquinolin-1(2H)-one]

Solubility in water [2]: 300 µg/mL
Compound: C[C@H](Nc1ncnc2[nH]cnc12)c1cc2cccc(Cl)c2c(=O)n1-c1ccccc1 [NDSA]

Moisture Sorption (wt % water) ([1]; 60% RH): 60% RH: 0.3 wt % water | Moisture Sorption (wt % water) ([1]; 90% RH): 90% RH: 0.7 wt % water | Solubility in water [2]: 50 µg/mL
Compound: C[C@H](Nc1ncnc2[nH]cnc12)c1cc2cccc(Cl)c2c(=O)n1-c1ccccc1 [NSA]

From patent US11312718B2, “Formulations of (S)-3-(1-(9H-purin-6-ylamino)ethyl)-8-chloro-2-phenylisoquinolin-1(2H)-one” (Infinity Pharmaceuticals, Inc., priority 2011, dated 2022)
